Source: PubChem BioAssay AID248 (DTP/NCI, 2004)
“And” between values parts separate entries of the source, which are not always exact repeats. Identical values can stand only once. Inconclusive results and toxic doses are left out. No stated cut-off is given here; in the data, active means T/C of 150% or more; inactive means T/C below 125%.

Test system: L1210 leukemia ip in BDF1 mice, survival T/C
Experiment: NCI In Vivo Anticancer Drug Screen. Data for tumor model L1210 Leukemia (intraperitoneal) in B6D2F1 (BDF1) mice
Details: endpoint: mean survival time, higher = longer survival
Method in brief: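 Mice bearing the transplanted tumor received compound or vehicle. Survival of the treated group was divided by that of the vehicle-treated control group to give the ratio.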

[1] = dose: 25.0 mg/kg/injection, schedule: Q01DX001 (ip), vehicle: Klucel (hydroxypropylcellulose) (HPC)
[2] = dose: 50.0 mg/kg/injection, schedule: Q01DX001 (ip), vehicle: Klucel (hydroxypropylcellulose) (HPC)
[3] = dose: 25.0 mg/kg/injection, schedule: Q01DX009 (ip), vehicle: saline
[4] = dose: 50.0 mg/kg/injection, schedule: Q01DX009 (ip), vehicle: saline
[5] = dose: 200.0 mg/kg/injection, schedule: Q01DX009 (ip), vehicle: saline
[6] = dose: 100.0 mg/kg/injection, schedule: Q04DX003 (ip), vehicle: saline
[7] = dose: 200.0 mg/kg/injection, schedule: Q04DX003 (ip), vehicle: saline
[8] = dose: 400.0 mg/kg/injection, schedule: Q04DX003 (ip), vehicle: saline
[9] = dose: 100.0 mg/kg/injection, schedule: Q04DX002 (ip), vehicle: Klucel (hydroxypropylcellulose) (HPC)
[10] = dose: 200.0 mg/kg/injection, schedule: Q04DX002 (ip), vehicle: Klucel (hydroxypropylcellulose) (HPC)
[11] = dose: 400.0 mg/kg/injection, schedule: Q04DX002 (ip), vehicle: Klucel (hydroxypropylcellulose) (HPC)
[12] = dose: 100.0 mg/kg/injection, schedule: Q01DX001 (ip), vehicle: Klucel (hydroxypropylcellulose) (HPC)
[13] = dose: 200.0 mg/kg/injection, schedule: Q01DX001 (ip), vehicle: Klucel (hydroxypropylcellulose) (HPC)
[14] = dose: 100.0 mg/kg/injection, schedule: Q01DX009 (ip), vehicle: saline with Tween-80
[15] = dose: 100.0 mg/kg/injection, schedule: Q01DX001 (ip), vehicle: carboxymethylcellulose (CMC)
[16] = dose: 200.0 mg/kg/injection, schedule: Q01DX001 (ip), vehicle: carboxymethylcellulose (CMC)
[17] = dose: 400.0 mg/kg/injection, schedule: Q01DX001 (ip), vehicle: carboxymethylcellulose (CMC)
[18] = dose: 100.0 mg/kg/injection, schedule: Q01DX009 (ip), vehicle: Klucel (hydroxypropylcellulose) (HPC)
[19] = dose: 200.0 mg/kg/injection, schedule: Q01DX009 (ip), vehicle: Klucel (hydroxypropylcellulose) (HPC)
[20] = dose: 400.0 mg/kg/injection, schedule: Q01DX009 (ip), vehicle: Klucel (hydroxypropylcellulose) (HPC)
[21] = dose: 100.0 mg/kg/injection, schedule: Q04DX003 (ip), vehicle: Klucel (hydroxypropylcellulose) (HPC)
[22] = dose: 200.0 mg/kg/injection, schedule: Q04DX003 (ip), vehicle: Klucel (hydroxypropylcellulose) (HPC)
[23] = dose: 400.0 mg/kg/injection, schedule: Q04DX003 (ip), vehicle: Klucel (hydroxypropylcellulose) (HPC)
[24] = dose: 400.0 mg/kg/injection, schedule: Q01DX001 (ip), vehicle: Klucel (hydroxypropylcellulose) (HPC)
[25] = dose: 100.0 mg/kg/injection, schedule: Q01DX001 (ip), vehicle: saline
[26] = dose: 200.0 mg/kg/injection, schedule: Q01DX001 (ip), vehicle: saline
[27] = dose: 400.0 mg/kg/injection, schedule: Q01DX001 (ip), vehicle: saline
[28] = dose: 100.0 mg/kg/injection, schedule: Q04DX002 (ip), vehicle: saline
[29] = dose: 200.0 mg/kg/injection, schedule: Q04DX002 (ip), vehicle: saline
[30] = dose: 100.0 mg/kg/injection, schedule: Q01DX009 (ip), vehicle: saline

Measured: T/C

CC[N-]c1nncs1.CC[N-]c1nncs1.CC[N-]c1nncs1.CC[N-]c1nncs1.[Cl][Rh][Cl]
inactive: dose: 3.13 mg/kg/injection, schedule: Q04DX003 (ip), vehicle: distilled water + Tween-80 101 % of control | dose: 6.25 mg/kg/injection, schedule: Q04DX003 (ip), vehicle: distilled water + Tween-80 104 % of control | dose: 12.5 mg/kg/injection, schedule: Q04DX003 (ip), vehicle: distilled water + Tween-80 98 % of control | dose: 25.0 mg/kg/injection, schedule: Q04DX003 (ip), vehicle: distilled water + Tween-80 92 % of control | dose: 50.0 mg/kg/injection, schedule: Q04DX003 (ip), vehicle: distilled water + Tween-80 93 % of control | dose: 100.0 mg/kg/injection, schedule: Q04DX003 (ip), vehicle: distilled water + Tween-80 104 % of control

CNC1=CC(=O)C1(F)F
inactive: dose: 12.5 mg/kg/injection, schedule: Q01DX001 (ip), vehicle: Klucel (hydroxypropylcellulose) (HPC) 101 % of control | [1] 108 % of control | [2] 108 % of control

CC(=O)OCC1OC(n2cc(F)c(=O)[nH]c2=O)CC1OC(C)=O (stereo unspecified)
inactive: dose: 3.0 mg/kg/injection, schedule: Q01DX009 (ip), vehicle: saline 98 % of control | dose: 6.0 mg/kg/injection, schedule: Q01DX009 (ip), vehicle: saline 95 % of control | dose: 12.0 mg/kg/injection, schedule: Q01DX009 (ip), vehicle: saline 95 % of control | dose: 24.0 mg/kg/injection, schedule: Q01DX009 (ip), vehicle: saline 106 % of control | [3] 111 % of control | [4] 122 % of control | [5] 123 % of control

Cc1c2c([nH]c(=O)c1C)C=CC(Br)C2Br (stereo unspecified)
inactive: dose: 100.0 mg/kg/injection, schedule: Q01DX001 (ip), vehicle: other 93 % of control | dose: 200.0 mg/kg/injection, schedule: Q01DX001 (ip), vehicle: other 101 % of control | dose: 400.0 mg/kg/injection, schedule: Q01DX001 (ip), vehicle: other 98 % of control

CCOC(=O)C[N+]1(C)CCC(O)CC1 (stereo unspecified)
inactive: [6] 98 % of control | [7] 98 % of control | [8] 101 % of control

CCOC(=O)C1C(C)NC(=S)NC1c1ccccc1 (stereo unspecified)
inactive: [9] 90 % of control | [10] 93 % of control | [11] 93 % of control

CON(C)CCO
inactive: [1] 107 % of control | [2] 107 % of control | [12] 105 % of control and 107 % of control | [13] 102 % of control

O=C1CC(c2ccccc2)NN1c1ccccc1 (stereo unspecified)
inactive: dose: 50.0 mg/kg/injection, schedule: Q01DX009 (ip), vehicle: saline with Tween-80 95 % of control and 97 % of control | [14] 100 % of control and 103 % of control | dose: 100.0 mg/kg/injection, schedule: Q04DX002 (ip), vehicle: alcohol 102 % of control | dose: 200.0 mg/kg/injection, schedule: Q04DX002 (ip), vehicle: alcohol 104 % of control | dose: 400.0 mg/kg/injection, schedule: Q04DX002 (ip), vehicle: alcohol 94 % of control

c1ccc2c(c1)Nc1cc3ccccc3cc1O2
inactive: dose: 50.0 mg/kg/injection, schedule: Q01DX001 (ip), vehicle: carboxymethylcellulose (CMC) 101 % of control | [15] 92 % of control | [16] 97 % of control | [17] 90 % of control

CCOC(=O)/C(Cc1ccc2c(c1)OCO2)=N\O
inactive: [6] 96 % of control | [7] 97 % of control | [8] 103 % of control

O=[N+]([O-])c1cccc(N(CCF)CCF)c1
inactive: dose: 5.0 mg/kg/injection, schedule: Q01DX001 (ip), vehicle: carboxymethylcellulose (CMC) 103 % of control | dose: 10.0 mg/kg/injection, schedule: Q01DX001 (ip), vehicle: carboxymethylcellulose (CMC) 103 % of control | dose: 20.0 mg/kg/injection, schedule: Q01DX001 (ip), vehicle: carboxymethylcellulose (CMC) 112 % of control

Cc1ccc(C)c(NC(=O)OC/C=C/c2ccccc2)c1
inactive: [18] 88 % of control | [19] 86 % of control | [20] 86 % of control

COc1ccc(C2CCCCC2OS(C)(=O)=O)cc1 (stereo unspecified)
inactive: [15] 97 % of control | [16] 106 % of control | [17] 95 % of control

Cc1c(NC=O)c(=O)n(-c2ccccc2)n1C
inactive: [18] 92 % of control | [21] 107 % of control | [19] 93 % of control | [22] 100 % of control | [20] 100 % of control | [23] 105 % of control

Cc1ccc(-c2oc(-c3ccc(C)cc3)c3cc(C)c(C)cc23)cc1
inactive: [12] 87 % of control | [13] 90 % of control | [24] 88 % of control

CCOC(=O)Nc1cc(NC(C)CCCN(CC)CC)nc2nc(-c3ccc(Cl)cc3)cnc12 (stereo unspecified)
inactive: dose: 9.5 mg/kg/injection, schedule: Q01DX001 (ip), vehicle: saline 100 % of control | dose: 19.0 mg/kg/injection, schedule: Q01DX001 (ip), vehicle: saline 102 % of control | dose: 38.0 mg/kg/injection, schedule: Q01DX001 (ip), vehicle: saline 89 % of control | dose: 75.0 mg/kg/injection, schedule: Q01DX001 (ip), vehicle: saline 100 % of control

CN1CCC2(CC1)SSC1(CCN(C)CC1)S2
inactive: [6] 98 % of control | [7] 98 % of control

CCCn1c(N)cc(=O)[nH]c1=S
inactive: dose: 50.0 mg/kg/injection, schedule: Q01DX001 (ip), vehicle: saline 100 % of control | [25] 96 % of control | [26] 100 % of control | [27] 100 % of control

CN(C)CN1C(=O)c2ccccc2C1=O
inactive: [18] 103 % of control | [19] 100 % of control | [20] 104 % of control

Oc1cccc(/C=N/NC(=S)Nc2ccccc2)c1
inactive: [18] 104 % of control | [19] 96 % of control | [20] 93 % of control

Cc1ccccc1OS(=O)(=O)c1ccccc1[N+](=O)[O-]
inactive: [14] 103 % of control | [21] 95 % of control | dose: 200.0 mg/kg/injection, schedule: Q01DX009 (ip), vehicle: saline with Tween-80 90 % of control | [22] 104 % of control | dose: 400.0 mg/kg/injection, schedule: Q01DX009 (ip), vehicle: saline with Tween-80 108 % of control | [23] 90 % of control

CCOC(=O)c1ccccc1C(=O)c1ccccc1
inactive: [9] 118 % of control | [10] 100 % of control | [11] 95 % of control

CCN=C(N)C(C)SS(=O)(=O)O (stereo unspecified)
inactive: [28] 106 % of control | [29] 98 % of control

Nc1ccc2ncccc2c1N
inactive: [28] 107 % of control | [29] 100 % of control | dose: 400.0 mg/kg/injection, schedule: Q04DX002 (ip), vehicle: saline 87 % of control

NS(=O)(=O)Cc1ccccc1
inactive: [3] 92 % of control | [4] 94 % of control | [30] 100 % of control

CCOC(=O)C(CCCOC(=O)c1cc([N+](=O)[O-])cc([N+](=O)[O-])c1)C(=O)OCC
inactive: [25] 94 % of control | [30] 101 % of control | [26] 98 % of control | [5] 101 % of control | [27] 91 % of control | dose: 400.0 mg/kg/injection, schedule: Q01DX009 (ip), vehicle: saline 95 % of control

O=S(=O)(NC/C=C/c1ccccc1)c1ccccc1
inactive: [12] 96 % of control | [13] 103 % of control | [24] 102 % of control
